Laboratory results published in US11753407B2, “Compounds for treating spinal muscular atrophy” (PTC Therapeutics, Inc., priority 2012, dated 2023).

Legend:
[1] = system: SMN2 mRNA in tissues of C/C-allele SMA mice; experiment: Endogenous SMN2 mRNA end-point semi-quantitative RT-PCR splicing assay in animal tissues; format: in vivo; settings: brain and muscle, BID oral gavage 10 days, end-point RT-PCR (FIG. 7)
Method: The endpoint reverse transcription-PCR (RT-PCR) splicing assay is used to quantify the levels of the full length and Δ7 SMN2 mRNA in tissues from mice treated with test compound.
Protocol. C/C-allele SMA mice are treated by oral gavage BID for 10 days with test compounds in 0.5% HPMC and 0.1% Tween-80. Tissue samples are collected and snap frozen for RNA purification.
Tissue samples (20-40 mg) are homogenized in QIAzol Lysis Reagent for 2 minutes at 20 Hz in the TissueLyser II using one stainless steel bead. After addition of chloroform, the homogenate is separated into aqueous and organic phases by centrifugation. RNA partitioned to the upper, aqueous phase is extracted and ethanol is added to provide appropriate binding conditions. The sample is then applied to the RNeasy spin column from the RNeasy Mini Kit, where total RNA binds to the membrane. The RNA is eluted in RNase-free water then stored at −20° C.
SMN2 spliced products are identified using the following amplification primers in Table 8. These primers hybridize to a nucleotide sequence in exon 6 (SMN Forward D, SEQ ID NO. 13) (nucleotide 22 to nucleotide 46) and exon 8 (SMN Reverse C, SEQ ID NO. 12), common to human SMN1 and SMN2 mRNA.
To synthesize cDNA, combine 1 μL of RNA solution (25-50 ng), 4 μL of 5× iScript reaction mix, 1 μL of reverse transcriptase, and 10 μL of water are combined and incubates 25° C. for 5 min followed by 42° C. for 30 min followed by 85° C. for 5 min. The cDNA solution is stored at −20° C.
To perform endpoint PCR, 5 μL of cDNA, 0.2 μL of 100 μM forward primer, 0.2 μL of 100 μM reverse primer, and 22.5 μL of polymerase super mix are combined in a 96 well semiskirted PCR plate. PCR is carried out at the following temperatures for the indicated time: Step 1: 94° C. (2 min), Step 2: 94° C. (30 sec), Step 3: 55° C. (30 sec), Step 4: 68° C. (1 min), then repeat Steps 2 to 4 for a total of 33 cycles, then hold at 4° C.
10 μL of each PCR sample is electrophoretically separated on a 2% agarose E-gel for 14 minutes stained with dsDNA staining reagents (e.g., ethidium bromide) and visualized using a gel imager.

[2] = system: Smn protein in SMA patient fibroblast cells (GM03813); experiment: Smn protein assay in cultured cells (SMN HTRF); format: cell-based, human; settings: 48 hours; for Smn protein expression: SMA Type 1 patient fibroblast cells, SMN HTRF assay (FIG. 8); for EC1.5x for Smn protein expression / maximum fold (Fold) increase of Smn protein: SMA patient fibroblast cells; for EC1.5x for Smn protein expression: 7-point concentration curve, SMN HTRF, concentration producing 1.5 times Smn protein vs DMSO vehicle control; for maximum fold (Fold) increase of Smn protein: 7-point concentration data, fold relative to vehicle control
Method in brief: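 Patient-derived SMA fibroblasts are plated, given compound for 48 h, then lysed in RIPA buffer with protease inhibitors. Lysate Smn is detected by an anti-SMN d2/kryptate HTRF pair incubated overnight. The normalized ΔF is divided by the vehicle ΔF to give fold change, from which EC1.5× and maximum fold are taken.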

COc1ccc(-c2cc(=O)n3cc(N4CCNCC4)ccc3n2)cc1OC [Cpd 6, 2-(3,4-dimethoxyphenyl)-7-(piperazin-1-yl)-4H-pyrido[1,2-a]pyrimidin-4-one]
SMN2 FL mRNA [1]: progressively more SMN2 FL mRNA | SMN2 Δ7 mRNA [1]: less SMN2 Δ7 mRNA | Smn protein expression [2]: dose dependent increase in Smn protein expression | EC1.5x for Smn protein expression [2]: *** (an EC1.5× between >0.3 μM and ≤1 μM is indicated by three stars (***)) | maximum fold (Fold) increase of Smn protein [2]: **** (a fold increase between >1.5 and ≤1.65 is indicated by four stars (****))

Cc1cn2nc(-c3cc(=O)n4cc(N5CCN(C)CC5)ccc4n3)cc2c(C)n1 [Cpd 170, 2-(4,6-dimethylpyrazolo[1,5-a]pyrazin-2-yl)-7-(4-methylpiperazin-1-yl)-4H-pyrido[1,2-a]pyrimidin-4-one]
SMN2 FL mRNA [1]: progressively more SMN2 FL mRNA | SMN2 Δ7 mRNA [1]: less SMN2 Δ7 mRNA | Smn protein expression [2]: dose dependent increase in Smn protein expression | EC1.5x for Smn protein expression [2]: **** (an EC1.5x≤0.3 μM is indicated by four stars (****)) | maximum fold (Fold) increase of Smn protein [2]: ***** (a fold increase >1.65 is indicated by five stars (*****))
